Measured values taken from patent publication EP4608400B1, “COMPOUND FOR TREATMENT OF PAIN” (Initiator Pharma A/S, priority 2022, dated 2024).
Entries after “also recorded” stand apart in the source; their conditions may differ.

Tested on: formalin-induced flinching behaviour
Assay: Automated rat formalin test of persistent nociceptive pain
Format: in vivo, Sprague-Dawley rats
Experimental: All treatments were administered s.c. in a dosing volume of 2 ml/kg 60 min prior to formalin injection.
Adult male Sprague-Dawley rats (Harlan Scandinavia, Alleroed, Denmark) were used. They were housed in Macrolon III cages (20 x 14 x 18 cm or 20 x 40 x18 cm; in groups of 2-5 per cage according to weight) containing wood-chip bedding material (3 x 1 x 4 mm). The environment was temperature (20 ± 2°C) and humidity (55 ± 15%) controlled and consisted of a light-dark cycle of 13:11 h (lights on at 06.00 h and off at 19.00 h). Food (Altromin®) and water were available ad libitum. The rats were allowed to habituate to the housing facilities for at least one week prior to being randomly assigned to behavioural experiments. At the end of each experiment rats were euthanized by cervical dislocation. All experiments were performed according to the Ethical Guidelines of the International Association for the Study of Pain (Zimmermann, 1983) and the Danish Committee for Experiments on Animals.
As highlighted in the Procedures section below 4 rats were included in each automated testing session. 4 individual treatments were assessed during the session and treatments were rotated to minimise bias associated with a particular testing chamber. […]
Assessment of formalin-induced flinching behaviour in normal, uninjured rats (body weight 180-220 g) was made with the use of an Automated Nociception Analyser (University of California, San Diego, CA; Yaksh et al., 2001). […] They were then returned to their separate observation chambers, each of which were in turn situated upon an enclosed detection device consisting of two electromagnetic coils designed to produce an electromagnetic field in which movement of the metal band could be detected. […] In an initial formalin concentration response study, five phases of nociceptive behaviour were identified and scored according to Yaksh et al., (2001); first phase (P1=0-5 min), interphase (Int=6-15 min), early second phase (P2A=16-40 min), late second phase (P2B=41-60 min) and entire second phase (P2A+P2B=16-60 min). […]

**Q.** Which “flinches in P1, interphase and P2” value (1, 3, 10, 30 mg/kg s.c., 60 min prior to 5% formalin) does the source give for COc1cc2ccc(O[C@@H]3C[C@H]4CC[C@@H](C3)N4)cc2oc1=O [IP2015, exo-7-[(8-azabicyclo[3.2.1]octan-3-yl)oxy]-3-methoxy-chromen-2-one] here?
**A.** reduced the prevalence of flinches; also recorded: robust dose-dependent inhibition

**Q.** What about the “observation in rats of the formalin test” value (10 or 30 mg/kg s.c., all rats) of the same molecule?
**A.** spontaneous erections and/or ejaculations

**Q.** And the minimal effective dose (s.c., especially during interphase and 2nd phase, stated as likely)?
**A.** < 3 mg/kg
